Measurements as given in patent publication US20230277519A1, “IRAK4 DEGRADERS AND USES THEREOF” (Kymera Therapeutics, Inc., priority 2022, published 2023).

How the values were obtained:
IRAK4 [1] = target: T1, IRAK4 (Homo sapiens, UniProt Q9NWZ3); assay: IRAK4 degradation in tumor by targeted MS (Phase 1a); format: in vivo; settings: patients, IV, DL1, targeted MS
T1 construct: from tissue; host or cells: tumor tissue of R/R B-cell NHL patients
T1 sequence (Q9NWZ3 1-460): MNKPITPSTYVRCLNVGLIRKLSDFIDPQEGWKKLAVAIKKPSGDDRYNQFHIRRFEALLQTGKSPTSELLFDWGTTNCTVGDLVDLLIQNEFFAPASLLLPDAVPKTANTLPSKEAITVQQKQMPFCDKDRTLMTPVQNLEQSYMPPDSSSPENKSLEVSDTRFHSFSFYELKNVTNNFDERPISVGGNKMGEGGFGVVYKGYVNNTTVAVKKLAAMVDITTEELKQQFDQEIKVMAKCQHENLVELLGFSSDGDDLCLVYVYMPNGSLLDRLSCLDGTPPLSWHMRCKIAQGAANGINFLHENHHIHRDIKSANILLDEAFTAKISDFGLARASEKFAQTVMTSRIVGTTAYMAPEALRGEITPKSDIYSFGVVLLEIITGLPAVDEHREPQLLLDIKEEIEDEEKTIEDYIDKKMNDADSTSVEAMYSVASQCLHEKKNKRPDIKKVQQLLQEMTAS
Experimental: (§1) In some embodiments, the present disclosure provides a method of administering Compound A to a patient in need thereof, comprising administering to said patient a therapeutically effective amount of Compound A or a pharmaceutically acceptable salt thereof (e.g., in a liquid formulation or a unit dose form as described herein), wherein great than 30%, 40%, 50%, 60%, 70%, 80%, or 90% of IRAK4 degradation in blood or tumor is achieved (e.g., by measuring, at 48 hours post-administration, IRAK4 levels using mass spectrometry or lymphocytes and monocytes using flow cytometry).
(§2) Patients who provide informed consent and meet the eligibility criteria for the study will be enrolled and treated with Compound A administered intravenously (IV) on Day 1 of a 21-day schedule (Schedule 1). An alternative schedule of Compound A administered IV on Day 1 and Day 2 of a 21-day schedule (Schedule 2) may also be evaluated based on emerging pharmacokinetic, pharmacodynamic, and safety data observed in Schedule 1. If Schedule 2 is investigated, the first dose level will represent a split dose of the highest dose previously determined to be tolerable in Schedule 1 with the total dose administered in Schedule 2 being equivalent to the total dose administered in Schedule 1. Subsequent dose levels for Schedule 2 will follow the same dose escalation scheme as described for Schedule 1. […]

[2] = Plasma concentration and PK in patients (Phase 1a); format: in vivo, human; settings: IV, DL1 and DL2, plasma
Description: (§3) Patients who provide informed consent and meet the eligibility criteria for the study will be enrolled and treated with Compound A administered intravenously (IV) on Day 1 of a 21-day schedule (Schedule 1). An alternative schedule of Compound A administered IV on Day 1 and Day 2 of a 21-day schedule (Schedule 2) may also be evaluated based on emerging pharmacokinetic, pharmacodynamic, and safety data observed in Schedule 1. If Schedule 2 is investigated, the first dose level will represent a split dose of the highest dose previously determined to be tolerable in Schedule 1 with the total dose administered in Schedule 2 being equivalent to the total dose administered in Schedule 1. Subsequent dose levels for Schedule 2 will follow the same dose escalation scheme as described for Schedule 1. If the sponsor and investigators determine that, based on the observed safety, PK, preliminary efficacy, and/or the PD profile, Schedule 2 may not be beneficial to patients, then the study will proceed immediately to Phase 1b after the Schedule 1 MTD/RP2D is determined and Schedule 2 may not be evaluated. • Schedule 1: Dose D1 on a 21-day schedule • Schedule 2: Dose D1, D2 on a 21-day schedule

Ikaros [3] = target: T2, Ikaros (Homo sapiens, UniProt Q13422); assay: Ikaros degradation in blood by PBMC FLOW (Phase 1a); format: in vivo; settings: patients with R/R B-cell NHL, IV, DL1 and DL2, PBMC FLOW
T2 construct: from tissue; host or cells: tumor tissue of R/R B-cell NHL patients
Experimental: (§4) In some embodiments, the present disclosure provides a method of administering Compound A to a patient in need thereof, comprising administering to said patient a therapeutically effective amount of Compound A or a pharmaceutically acceptable salt thereof (e.g., in a liquid formulation or a unit dose form as described herein), wherein greater than 40%, 50%, 60%, 70%, 80%, or 90% of Ikaros degradation in blood or tumor is achieved (e.g., by measuring, at 48 hours post-administration, Ikaros levels using mass spectrometry or lymphocytes and monocytes using flow cytometry).
as §2

Aiolos [4] = target: T3, Aiolos (Homo sapiens, UniProt Q9UKT9); assay: Aiolos degradation in tumor by targeted MS (Phase 1a); format: in vivo; settings: patients, IV, DL1, targeted MS
T3 construct: from tissue; host or cells: tumor tissue of R/R B-cell NHL patients
Experimental: (§5) In some embodiments, the present disclosure provides a method of administering Compound A to a patient in need thereof, comprising administering to said patient a therapeutically effective amount of Compound A or a pharmaceutically acceptable salt thereof (e.g., in a liquid formulation or a unit dose form as described herein), wherein greater than 60%, 70%, 80%, or 90% of Aiolos degradation in blood or tumor is achieved (e.g., by measuring, at 48 hours post-administration, Aiolos levels using mass spectrometry or lymphocytes and monocytes using flow cytometry).
as §2

Aiolos [5] = target: T3, Aiolos; assay: Aiolos degradation in blood by PBMC FLOW (Phase 1a); format: in vivo; settings: patients with R/R B-cell NHL, IV, DL1 and DL2, PBMC FLOW
Experimental: as §5, §2

[6] = system: IRAK4, Ikaros, and Aiolos; assay: Duration of target degradation in patients (Phase 1a); format: in vivo, human; settings: once every three-week dosing
Description: as §3

Ikaros [7] = target: T2, Ikaros; assay: Ikaros degradation in tumor by targeted MS (Phase 1a); format: in vivo; settings: patients, IV, DL1, targeted MS
Experimental: as §4, §2

IRAK4 [8] = target: T1, IRAK4; assay: IRAK4 degradation in blood by PBMC FLOW (Phase 1a); format: in vivo; settings: patients with R/R B-cell NHL, IV, DL1 and DL2, PBMC FLOW
Experimental: as §1, §2

T3 sequence (Q9UKT9 whole entry): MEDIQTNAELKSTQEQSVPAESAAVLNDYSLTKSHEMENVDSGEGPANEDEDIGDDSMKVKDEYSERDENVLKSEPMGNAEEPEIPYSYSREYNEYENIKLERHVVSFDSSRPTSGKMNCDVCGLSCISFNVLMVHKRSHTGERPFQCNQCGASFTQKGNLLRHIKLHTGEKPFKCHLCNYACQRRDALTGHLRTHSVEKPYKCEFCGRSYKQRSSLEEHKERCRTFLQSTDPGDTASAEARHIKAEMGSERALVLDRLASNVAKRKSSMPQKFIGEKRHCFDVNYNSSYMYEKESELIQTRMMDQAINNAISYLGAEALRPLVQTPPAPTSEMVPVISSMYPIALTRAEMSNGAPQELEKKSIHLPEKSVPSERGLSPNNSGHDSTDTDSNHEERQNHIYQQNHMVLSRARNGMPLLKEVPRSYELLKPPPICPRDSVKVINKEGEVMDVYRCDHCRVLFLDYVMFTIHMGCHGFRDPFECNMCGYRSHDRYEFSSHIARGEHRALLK
T2 sequence (Q13422 whole entry): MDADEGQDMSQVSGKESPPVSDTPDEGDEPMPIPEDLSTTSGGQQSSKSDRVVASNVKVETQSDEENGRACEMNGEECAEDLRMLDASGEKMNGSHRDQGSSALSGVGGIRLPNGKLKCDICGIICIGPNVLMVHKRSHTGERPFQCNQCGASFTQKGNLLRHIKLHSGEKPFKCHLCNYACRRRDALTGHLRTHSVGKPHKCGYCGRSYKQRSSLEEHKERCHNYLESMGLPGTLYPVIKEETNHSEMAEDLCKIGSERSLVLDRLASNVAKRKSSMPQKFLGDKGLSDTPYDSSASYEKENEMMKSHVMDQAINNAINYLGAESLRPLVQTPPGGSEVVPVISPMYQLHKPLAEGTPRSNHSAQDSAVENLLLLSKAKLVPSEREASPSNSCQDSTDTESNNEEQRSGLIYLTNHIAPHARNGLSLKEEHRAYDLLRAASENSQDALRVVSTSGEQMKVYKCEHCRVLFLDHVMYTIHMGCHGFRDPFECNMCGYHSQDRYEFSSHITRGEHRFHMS

CC(C)(O)c1cc2nc([C@H]3CC[C@H](CN4CC5(CC(CCNc6cccc7c6C(=O)N(C6CCC(=O)NC6=O)C7=O)C5)C4)CC3)sc2cc1NC(=O)c1cccc(C(F)(F)F)n1 (some centres unmarked) [Compound A]
IRAK4 KD in tumor (IRAK4 [1]): 27%
Exposure (plasma concentration and PK) [2]: dose-proportional increase in exposure
KD of Ikaros in PBMC (Ikaros [3]): ≤ 95%
Aiolos KD in tumor (Aiolos [4]): 40-66%
KD of Aiolos in PBMC (Aiolos [5]): ≤ 95%
Duration of target degradation [6]: At least 72 h
Ikaros KD in tumor (Ikaros [7]): 40-66%
IRAK4 degradation in PBMC (IRAK4 [8]): Up to 40%
